Among the data in US20050209278A1, “Piperidinyl- and piperazinyl-sulfonylmethyl hydroxamic acids and their use as protease inhibitors” (priority 2002, published 2005) are IC50 values, retold here.

The target in this test is T1, MMP-1 (Homo sapiens, UniProt P03956).
T1 construct: made in house; host or cells: MMP-1-transfected HT-1080 cells (spent media)
T1 sequence (P03956 100-469): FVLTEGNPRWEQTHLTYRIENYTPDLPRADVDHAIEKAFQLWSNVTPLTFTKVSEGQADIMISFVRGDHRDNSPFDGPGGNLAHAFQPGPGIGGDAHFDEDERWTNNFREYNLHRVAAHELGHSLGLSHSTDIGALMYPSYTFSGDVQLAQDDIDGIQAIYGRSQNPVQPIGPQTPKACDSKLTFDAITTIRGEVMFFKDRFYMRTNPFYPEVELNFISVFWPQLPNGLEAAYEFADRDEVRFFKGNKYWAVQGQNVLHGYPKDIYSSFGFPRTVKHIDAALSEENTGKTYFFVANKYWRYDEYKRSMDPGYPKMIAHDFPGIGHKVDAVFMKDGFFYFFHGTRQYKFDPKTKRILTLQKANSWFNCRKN
Kind of test: In vitro MMP inhibition, IC50 determination (fluorogenic substrate I). Format: biochemical. The conditions noted are these: read-out: MMP-1 (IC-50).

Read-outs that look alike come from different tables or passages of the source. Some results are limits rather than exact numbers.

As to `CCOCCCc1ccc(N2CCN(S(=O)(=O)C3(C(=O)NO)CCN(CCOC)CC3)CC2)cc1` [Example 179], the IC50 (value in parenthesis) is greater than 10 µM.
The same measure, in the same setting: for `COCCCc1ccc(N2CCN(S(=O)(=O)C3(C(=O)NO)CCN(CCOC)CC3)CC2)cc1` [Example 180] the value was greater than 10 µM.
The same measure, in the same setting: next, `COCCN1CCC(C(=O)NO)(S(=O)(=O)N2CCN(c3ccc(CC4CCCCC4)cc3)CC2)CC1` [Example 181]: greater than 10 µM.
For `COCCN1CCC(C(=O)NO)(S(=O)(=O)N2CCN(c3ccc(CCC4CCCC4)cc3)CC2)CC1` [Example 182], the IC50 (value in parenthesis) is greater than 10 µM.
Consider `COCCN1CCC(C(=O)NO)(S(=O)(=O)N2CCN(c3ccc(CC4CCC4)cc3)CC2)CC1` [Example 183], for which the IC50 (value in parenthesis) was greater than 10 µM.
On the same count and under the same terms, next, `CCOc1ccc(N2CCN(S(=O)(=O)C3(C(=O)NO)CCN(CCOC)CC3)CC2)cc1F` [Example 184]: greater than 10 µM.
For the compound `CCCOc1ccc(N2CCN(S(=O)(=O)C3(C(=O)NO)CCN(CCOC)CC3)CC2)cc1F` [Example 185], the IC50 (value in parenthesis) was greater than 10 µM.
`COCCN1CCC(C(=O)NO)(S(=O)(=O)N2CCN(c3ccc(C#N)cc3)CC2)CC1` [Example 186]: the IC50 (value in parenthesis) is greater than 10 µM.
Same read-out and setting: for `CCc1cnc(N2CCN(S(=O)(=O)C3(C(=O)NO)CCN(CCOC)CC3)CC2)nc1` [Example 187] the value was greater than 10 µM.
On the same count and under the same terms, for `CCC(CC)Cc1ccc(N2CCN(S(=O)(=O)C3(C(=O)NO)CCN(CCOC)CC3)CC2)cc1` [Example 188] the value was greater than 10 µM.
Take `CCCCOc1ccc(N2CCN(S(=O)(=O)C3(C(=O)NO)CCN(C(=O)CCC)CC3)CC2)cc1` [Example 290]: the IC50 (value in parentheses) is greater than 10 µM.
